In patent US8846107B2, “In situ generation of peroxycarboxylic acids at alkaline pH, and methods of use thereof” (priority 2010, dated 2014):

Assays:
[1] = tested on: Escherichia coli ATCC 11229; test: Sanitizing efficacy of in situ generated peroxycarboxylic acids; type: cell-based; details: 25° C.
Procedure: A study was run to evaluate the sanitizing efficacy of mixtures of peroxycarboxylic acids generated in situ from esters under alkaline conditions. For this study the following ester based peroxycarboxylic acid forming compositions were used.
The above Peroxycarboxylic acid premixes were then tested alone at various concentrations, and mixed at various concentrations against Staphylococcus aureus ATCC 6538, and Escherichia coli ATCC 11229.
The test substances were tested against Staphylococcus aureus ATCC 6538, and Escherichia coli ATCC 11229 at 25° C.±1° C. for 30 seconds. A neutralizer screen was performed as part of the testing to verify that the neutralizer adequately neutralized the product and was not detrimental to the tested organisms.

[2] = Coupling of precipitated POOA solution by surfactants and hydrotropes; type: physicochemical; details: 1000 ppm POOA in DI Water
Procedure: A variety of surfactants were analyzed for coupling and/or dispersion stabilizing of a peroxycarboxylic acid composition generated according to the methods of the invention. In particular, a peroxyoctanoic acid (POOA) composition in deionized water produced according to the invention was analyzed for coupling and/or dispersion stabilization using the dispersing agents set forth in Table 14A.
Given the very limited water solubility of POOA in its protonated form, acidification of the alkaline perhydrolysis solutions of the same causes immediate precipitation and rapid phase separation. In this example various surfactants and hydrotropes were evaluated for their ability to couple the POOA. In Table 14A it can be seen that the most efficient agents for coupling an already precipitated solution of POOA were samples I and II.

[3] = Dispersion stability of acidified POOA solutions with dispersing agents; type: physicochemical
Procedure: The SLS, LAS and SOA dispersing agents were then further examined for efficacy in stabilizing and/or dispersing in 1% or lower sulfuric acid solutions. Solutions were made according to the following order (3, 6, 9, 12, 1, 4, 7, 10, 2, 5, 8, 11, 13, 14). Solution 13 was made as 1 through 12 with the addition of 50 mL of 5 grain hard water to the aliquot of alkaline reaction solution followed by swirling with the surface aliquot and then additional 50 mL of 5 grain hard water, followed within about 5 seconds by 50 mL of 5 grain 2% sulfuric acid and swirled. Solution 14 was made by direct addition of 1% sulfuric acid (5 grain) without pre-dilution, but after moments of swirling with SLS aliquot. All concentrations are shown in ppm.
For the POOA solutions the targeted peracid concentration was based upon initial average of about 5.40 wt-% of ongoing cold alkaline peracid hydrolysis according to the invention (**), wherein the aliquot was constant while POOA was increasing.
The appearance of an oil sheen was regarded as a pass or fail.

[4] = 35 ppm POAA, pH 5.00, 30 seconds
[5] = 61 ppm POAA, pH 5.00, 30 seconds
[6] = 13 ppm POOA, pH 4.98, 30 seconds
[7] = 15 ppm POOA, pH 5.01, 30 seconds
[8] = 20 ppm POOA, pH 4.98, 30 seconds

## CC(=O)OO [POAA, peroxyacetic acid]
[1]; [4]
  Average Log10 Survivors: 7.27 Log10
  Log Reduction: 0.78 Log
  Survivors (CFU/mL): 1.85 × 10^7 CFU/mL
[1]; [5]
  Average Log10 Survivors: 3.93 Log10
  Log Reduction: 4.12 Log
  Survivors (CFU/mL): 3.0 × 10^3 CFU/mL

## Linear Aryl Sulfonate [II]
[2]
  Amount of (B) Required for Coupling (g/200 g aq POOA): 0.65 g/200 g aq POOA
[2]; listed as LAS
  Amount of (B) Required for Coupling (g/200 g aq POOA): 0.64 g/200 g aq POOA
[3]; acidified POOA in 10,000 ppm H2SO4, oil sheen regarded as fail
  oil sheen at 23 h: minimal surface oil

## Sodium Lauryl Ether Sulfate [III]
[2]
  Amount of (B) Required for Coupling (g/200 g aq POOA): >0.94 g/200 g aq POOA

## CCCCCCCCCCCCOS(=O)(=O)[O-].[Na+] [I, Sodium Lauryl Sulfate]
[2]
  Amount of (B) Required for Coupling (g/200 g aq POOA): 0.64 g/200 g aq POOA
[3]; acidic, aqueous dispersions of POOA
  dispersant performance for acidified POOA: exceptional dispersant

## Alkyl Polyglycosides [VI]
[2]
  Amount of (B) Required for Coupling (g/200 g aq POOA): 2.46 g/200 g aq POOA

## CCCCCCCCS(=O)(=O)[O-].[Na+] [VII, Sodium octanesulfonate]
[2]
  Amount of (B) Required for Coupling (g/200 g aq POOA): 6.60 g/200 g aq POOA

## CCCCCCCC(=O)OO [POOA, peroxyoctanoic acid]
[1]; [6]
  Average Log10 Survivors: 7.59 Log10
  Log Reduction: 0.46 Log
  Survivors (CFU/mL): 4.22 × 10^7 CFU/mL
[1]; [7]
  Average Log10 Survivors: 7.15 Log10
  Log Reduction: 0.90 Log
  Survivors (CFU/mL): 1.06 × 10^7 CFU/mL
[1]; [8]
  Average Log10 Survivors: 5.85 Log10
  Log Reduction: 2.20 Log

## CCCCC(CC)COC(=O)CC(C(=O)OCC(CC)CCCC)S(=O)(=O)[O-].[Na+] (centres unmarked) [X, Sodium dioctyl Sulfosuccinates]
[2]
  Amount of (B) Required for Coupling (g/200 g aq POOA): >2.0 g/200 g aq POOA
